In patent US20140044766A1, “METHOD FOR THE ANTIMICROBIAL PROTECTION OF AN OBJECT USING AN ANTIMICROBIAL PRESSURE-SENSITIVE ADHESIVE PLASTICS FILM” (priority 2007, published 2014):
Entries after “also recorded” stand apart in the source; their conditions may differ.

How the values were obtained:
Pseudomonas aeruginosa = conditions: cited from earlier work
[1] = test system: Staphylococcus aureus bacteria; test: inhibition zone method, similar to Japanese standard JIS L 1902: 2002; type: cell-based
Method: The antimicrobial activity of the films was determined using the inhibition zone method, similar to that described in Japanese standard JIS L 1902: 2002. The film was cut into small disks with a diameter of 1 cm. They were immersed in a dish containing a nutrient medium and a known quantity of yellow colored Staphylococcus aureus bacteria. […] A protective halo was formed around the treated samples that was termed the inhibition zone, as shown in FIGS. 4-1 to 4-15 representing the results for the antimicrobial films of Examples 1 to 15. Measuring this halo allowed the intensity of the antimicrobial activity of the film to be determined.

[2] = test system: penicillin-resistant Stapylococcus aureus; conditions: cited from earlier work

Oc1cc(Cl)ccc1Oc1ccc(Cl)cc1Cl [triclosan, 5-chloro-2-(2,4-dichlorophenoxy)phenol]
effect on Pseudomonas aeruginosa (Pseudomonas aeruginosa): not affected
antimicrobial activity in varnish-coated films (comparison in words) ([1]; agent incorporated in acrylic varnish on PVC film): more effective than Parmetol CF10 and Irgaguard H6000; also recorded: retained a high activity compared with the others
antimicrobial activity in a film incorporating the agent in its material (comparison in words) ([1]; cast PVC film, Examples 8 to 15): highest antimicrobial activity
effect on penicillin-resistant Stapylococcus aureus [2]: simply inhibited
